Test results reported in US20240383856A1 (Zedira GmbH, priority 2021, published 2024).
pIC50: −log10 of the molar value.

What was measured:
[1] = Caco-2 permeability assay (CacoReady kit); type: in vitro ADME; details: human, Caco-2, Caco-2 barrier, CacoReady kit; above 1×10^−6 cm/s classified as permeable
How it was run: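 Intestinal permeability modelled with kit-supplied Caco-2 barriers, run as the maker specifies; each compound reported as Papp.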

[2] = logD by shake flask method (octanol / PBS pH 7.4, HPLC); type: physicochemical; details: octanol / PBS pH 7.4, shake flask
How it was run: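 LogD obtained by HPLC measurement of how the compound distributes between PBS (pH 7.4) and octanol in a shake-flask experiment.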

[3] = molecular target: T1, recombinant human transglutaminase 2 (Homo sapiens, UniProt P21980); test: Transglutaminase assay (DCC-assay): incorporation of dansylcadaverine into dimethylcasein; type: biochemical; details: recombinant human TG2 10 nM; dansylcadaverine incorporation into dimethylcasein; read-out: IC50 TG2
T1 construct: purchased Zedira T022
T1 sequence (P21980 1-687): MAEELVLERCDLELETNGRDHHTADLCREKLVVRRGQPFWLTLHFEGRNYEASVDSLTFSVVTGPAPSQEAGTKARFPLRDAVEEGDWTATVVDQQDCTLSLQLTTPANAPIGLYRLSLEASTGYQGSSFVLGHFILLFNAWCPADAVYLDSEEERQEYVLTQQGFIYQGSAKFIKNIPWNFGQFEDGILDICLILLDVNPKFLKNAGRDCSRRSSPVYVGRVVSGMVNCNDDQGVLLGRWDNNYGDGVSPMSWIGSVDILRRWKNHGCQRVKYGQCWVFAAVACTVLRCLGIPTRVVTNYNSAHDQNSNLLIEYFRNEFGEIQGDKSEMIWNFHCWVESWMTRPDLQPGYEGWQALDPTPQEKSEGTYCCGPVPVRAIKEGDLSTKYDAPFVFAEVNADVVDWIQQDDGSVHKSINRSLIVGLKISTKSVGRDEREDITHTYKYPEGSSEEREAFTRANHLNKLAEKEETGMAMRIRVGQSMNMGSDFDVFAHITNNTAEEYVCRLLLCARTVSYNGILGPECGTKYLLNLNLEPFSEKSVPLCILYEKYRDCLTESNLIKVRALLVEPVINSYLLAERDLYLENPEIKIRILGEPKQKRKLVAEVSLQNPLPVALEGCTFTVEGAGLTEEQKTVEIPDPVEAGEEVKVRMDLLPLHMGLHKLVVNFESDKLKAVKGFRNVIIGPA
How it was run: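 IC50 is the inhibitor level that blocks 50% of initial activity. Activity is the fluorescence slope (λex 330, λem 500 nm) between 20 and 30 min of a 37 °C run, relative to a 2% DMSO control. The enzyme is recombinant human tissue transglutaminase, 10 nM final, tested against a 1:2 inhibitor dilution series in a pH 8.0 mix with 10 mM CaCl2, 10 mM glutathione, 16.7 µM dansylcadaverine and 4 µM N,N-dimethylcasein.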

SMILES | Papp [1] [×10⁻⁶ cm/s] | logD [2] | pIC50 [3]
CNC(=O)C(=O)CC[C@H](NC(=O)c1nc(C2(C)CC2)no1)C(=O)Nc1cccn(CC(=O)NC2C3CC4CC2CC(C(N)=O)(C4)C3)c1=O (stereo partly drawn) [II-196, (S)-N1-(1-(2-(4-aminoadamantane-1-carboxamide)-2-oxoethyl)-2-oxo-1,2-dihydropyridin-3-yl)-N6-methyl-2-(3-(1-methylcyclopropyl)-1,2,4-oxadiazole-5-carboxamido)-5-oxohexanediamide] | < 1 | < 1 | 5.60 to 6.40
CNC(=O)C(=O)CC[C@H](NC(=O)c1nccc2cnccc12)C(=O)Nc1cccn(CC(=O)NC23CCC(C2)C3)c1=O [II-188, (S)-N1-(1-(2-(bicyclo[2.1.1]hexan-1-ylamino)-2-oxoethyl)-2-oxo-1,2-dihydropyridin-3-yl)-N6-methyl-2-(2,6-naphthyridine-1-carboxamido)-5-oxohexanediamide] | < 1 | < 1 | 5.60 to 6.40
CNC(=O)C(=O)CC[C@H](NC(=O)C1CN2CCC1CC2)C(=O)Nc1cccn(CC(=O)NC2C3CC4CC(C3)CC2C4)c1=O (stereo partly drawn) [II-61, (S)-N1-(1-(2-(2-adamantylamino)-2-oxoethyl)-2-oxo-1,2-dihydropyridin-3-yl)-N6-methyl-5-oxo-2-(quinuclidine-3-carboxamido)hexanediamide] | < 1 | 1 to 3 | 6.40 to 7.40
CNC(=O)C(=O)CC[C@H](NC(=O)c1ncc(OC)o1)C(=O)Nc1cccn(CCC(=O)NC2C3CC4CC(C3)CC2C4)c1=O (stereo partly drawn) [II-166, (S)-N1-(1-(3-(2-adamantylamino)-3-oxopropyl)-2-oxo-1,2-dihydropyridin-3-yl)-2-(5-methoxyoxazole-2-carboxamido)-N6-methyl-5-oxohexanediamide] | 1 to 10 | 1 to 3 | 5.60 to 6.40
Cn1nncc1C(=O)N[C@@H](CCC(=O)C(N)=O)C(=O)Nc1cccn(CC(=O)NC2C3CC4CC(C3)CC2C4)c1=O (stereo partly drawn) [II-127, (S)-N1-(1-(2-(2-adamantylamino)-2-oxoethyl)-2-oxo-1,2-dihydropyridin-3-yl)-2-(1-methyl-1H-1,2,3-triazole-5-carboxamido)-5-oxohexanediamide] | < 1 | < 1 | 6.40 to 7.40
CNC(=O)C(=O)CC[C@H](NC(=O)c1sc(OC)nc1C)C(=O)Nc1cccn(CC(=O)NC2C3CC4CC(C3)CC2C4)c1=O (stereo partly drawn) [II-18, (S)-N1-(1-(2-(2-adamantylamino)-2-oxoethyl)-2-oxo-1,2-dihydropyridin-3-yl)-2-(2-methoxy-4-methylthiazole-5-carboxamido)-N6-methyl-5-oxohexanediamide] | < 1 | 1 to 3 | 6.40 to 7.40
CNC(=O)C(=O)CC[C@H](NC(=O)c1cnsn1)C(=O)Nc1cccn(CC(=O)NC2C3CC4CC(C3)CC2C4)c1=O (stereo partly drawn) [II-142, (S)-N1-(1-(2-(2-adamantylamino)-2-oxoethyl)-2-oxo-1,2-dihydropyridin-3-yl)-N6-methyl-5-oxo-2-(1,2,5-thiadiazole-3-carboxamido)hexanediamide] | < 1 | 1 to 3 | 6.40 to 7.40
CNC(=O)C(=O)CC[C@H](NC(=O)c1nc2ccccc2[nH]1)C(=O)Nc1cccn(CC(=O)NC2C3CC4CC(C3)CC2C4)c1=O (stereo partly drawn) [II-12, (S)-2-(1H-benzo[d]imidazole-2-carboxamido)-N1-(1-(2-(2-adamantylamino)-2-oxoethyl)-2-oxo-1,2-dihydropyridin-3-yl)-N6-methyl-5-oxohexanediamide] | < 1 | 3 to 5 | 6.40 to 7.40

Next, values leading:

Papp [1] [×10⁻⁶ cm/s] | logD [2] | pIC50 [3] | SMILES
1 to 10 | 1 to 3 | > 7.40 | CNC(=O)C(=O)CC[C@H](NC(=O)c1oc2ccccc2c1C)C(=O)Nc1cccn(CC(=O)NC2C3CC4CC2CC(F)(C4)C3)c1=O (stereo partly drawn) [II-69, (S)-N1-(1-(2-(5-fluoroadamantane-2-amino)-2-oxoethyl)-2-oxo-1,2-dihydropyridin-3-yl)-N6-methyl-2-(3-methylbenzofuran-2-carboxamido)-5-oxohexanediamide]
1 to 10 | 1 to 3 | > 7.40 | Cc1c(C(=O)N[C@@H](CCC(=O)C(N)=O)C(=O)Nc2cccn(CC(=O)NC3C4CC5CC(C4)CC3C5)c2=O)oc2ccccc12 (stereo partly drawn) [II-118, (S)-N1-(1-(2-(2-adamantylamino)-2-oxoethyl)-2-oxo-1,2-dihydropyridin-3-yl)-2-(3-methylbenzofuran-2-carboxamido)-5-oxohexanediamide]
< 1 | < 1 | 6.40 to 7.40 | CNC(=O)C(=O)CC[C@H](NC(=O)c1csnn1)C(=O)Nc1cccn(CC(=O)NC23CC(C2)C3)c1=O [II-198, (S)-N1-(1-(2-(bicyclo[1.1.1]pentan-1-ylamino)-2-oxoethyl)-2-oxo-1,2-dihydropyridin-3-yl)-N6-methyl-5-oxo-2-(1,2,3-thiadiazole-4-carboxamido)hexanediamide]
1 to 10 | 1 to 3 | 6.40 to 7.40 | CNC(=O)C(=O)CC[C@H](NC(=O)c1csc(Cl)c1)C(=O)Nc1cccn(CC(=O)NC2C3CC4CC(C3)CC2C4)c1=O (stereo partly drawn) [II-27, (S)-2-(5-chlorothiophene-3-carboxamido)-N1-(1-(2-(2-adamantylamino)-2-oxoethyl)-2-oxo-1,2-dihydropyridin-3-yl)-N6-methyl-5-oxohexanediamide]
1 to 10 | 1 to 3 | 6.40 to 7.40 | CNC(=O)C(=O)CC[C@H](NC(=O)c1csc(Cl)n1)C(=O)Nc1cccn(CC(=O)NC2C3CC4CC(C3)CC2C4)c1=O (stereo partly drawn) [II-36, (S)-2-(2-chlorothiazole-4-carboxamido)-N1-(1-(2-(2-adamantylamino)-2-oxoethyl)-2-oxo-1,2-dihydropyridin-3-yl)-N6-methyl-5-oxohexanediamide]
1 to 10 | 3 to 5 | > 7.40 | CNC(=O)C(=O)CC[C@H](NC(=O)c1cc2cc(Br)ccc2s1)C(=O)Nc1cccn(CC(=O)NC2C3CC4CC(C3)CC2C4)c1=O (stereo partly drawn)
1 to 10 | 1 to 3 | > 7.40 | CNC(=O)C(=O)CC[C@H](NC(=O)C1Cc2ccccc2C1)C(=O)Nc1cccn(CC(=O)NC2C3CC4CC(C3)CC2C4)c1=O (stereo partly drawn) [II-13, (S)-2-(2,3-dihydro-1H-indene-2-carboxamido)-N1-(1-(2-(2-adamantylamino)-2-oxoethyl)-2-oxo-1,2-dihydropyridin-3-yl)-N6-methyl-5-oxohexanediamide]
1 to 10 | 1 to 3 | 6.40 to 7.40 | CNC(=O)C(=O)CC[C@H](NC(=O)c1sccc1Br)C(=O)Nc1cccn(CC(=O)NC2C3CC4CC(C3)CC2C4)c1=O (stereo partly drawn) [II-42, (S)-2-(3-bromothiophene-2-carboxamido)-N1-(1-(2-(2-adamantylamino)-2-oxoethyl)-2-oxo-1,2-dihydropyridin-3-yl)-N6-methyl-5-oxohexanediamide]
1 to 10 | 1 to 3 | > 7.40 | CNC(=O)C(=O)CC[C@H](NC(=O)c1cc(C(=O)OC)cc([N+](=O)[O-])c1)C(=O)Nc1cccn(CC(=O)NC2C3CC4CC(C3)CC2C4)c1=O (stereo partly drawn) [II-62, (S)-methyl 3-(1-(1-(2-(2-adamantylamino)-2-oxoethyl)-2-oxo-1,2-dihydropyridin-3-ylamino)-6-(methylamino)-1,5,6-trioxohexan-2-ylcarbamoyl)-5-nitrobenzoate]
1 to 10 | < 1 | > 7.40 | NC(=O)C(=O)CC[C@H](NC(=O)c1cc2ccccc2o1)C(=O)Nc1cccn(CC(=O)N[C@@H]2C[C@@H]3CC[C@H]2C3)c1=O [II-148, (S)-2-(benzofuran-2-carboxamido)-N1-(1-(2-((1S,2R,4R)-bicyclo[2.2.1]heptan-2-ylamino)-2-oxoethyl)-2-oxo-1,2-dihydropyridin-3-yl)-5-oxohexanediamide]
1 to 10 | 1 to 3 | > 7.40 | CNC(=O)C(=O)CC[C@H](NC(=O)c1oc2ccccc2c1C)C(=O)Nc1cccn(CC(=O)N[C@@H]2C[C@H]3CC[C@@H]2C3)c1=O [II-94, (S)-N1-(1-(2-((1R,2R,4S)-bicyclo[2.2.1]heptan-2-ylamino)-2-oxoethyl)-2-oxo-1,2-dihydropyridin-3-yl)-N6-methyl-2-(3-methylbenzofuran-2-carboxamido)-5-oxohexanediamide]
